Earlier results, collected in patent publication US9642799B2, “Crystalline 6-(2-((4-amino-3-(3-hydroxyphenyl)-1H-pyrazolo[3,4-D]pyrimidin-1-yl)methyl)-3-(2-chlorobenzyl)-4-0X0-3,4-dihydroquinazolin-5-yl)-N,N-bis(2-methoxyethyl)hex-5-ynamide” (Respivert Limited, priority 2012, dated 2017).

Legend:
mice = settings: stimulated by TNFα
[1] = tested on: ovalbumin-sensitized, ovalbumin-challenged mice
[2] = elicited by either LPS or cigarette smoke
murine model = settings: administered by aerosolisation

SMILES	neutrophil accumulation in the lungs and neutrophil function (mice)	airways hyper-responsiveness, IgE release, pro-inflammatory cytokine expression, inflammatory cell accumulation into the lung and vascular permeability [1]	pulmonary neutrophilia [2]	pulmonary eosinophilia, interleukin-13, mucin accumulation and airways hyperesponsiveness (murine model)
Cc1ccccc1-n1c(Cn2cnc3c(N)ncnc32)nc2cccc(C)c2c1=O [IC-87114]	lowered	found to inhibit	–	–
Nc1nc(N)c2nc(-c3cccc(O)c3)c(-c3cccc(O)c3)nc2n1 [TG100-115]	–	–	able to inhibit	reported to inhibit
